Counter-ions that a name gives are not always drawn.

Regarding `Cc1cccc(C)c1C(C[N+](C)(C)C)OCCCc1c(F)cccc1F.[I-]` (stereo not shown), the melting point came out at 190 °C. `Cc1cccc(C)c1C(CN1CCCCC1)OCCCc1c(F)cccc1F` (stereo not shown) (as salt: hydrochloride) [Example 14, 1-[2-[3-(2,6-difluorophenyl)propoxy]-2-(2,6-dimethylphenyl)ethyl]piperidine]: the melting point is more than 200 °C. For the molecule `Cc1cccc(C)c1C(CNCc1ccccc1)OCCCc1c(F)cccc1F` (stereo not shown) (as salt: hydrochloride) [Example 23, N-[2-[3-(2,6-difluorophenyl)propoxy]-2-(2,6-dimethylphenyl)ethyl]-N-benzylamine], the melting point is 176 °C. With `Cc1cccc(C)c1C(CN(Cc1ccccc1)Cc1ccccc1)OCCCc1c(F)cccc1F` (stereo not shown) (as salt: hydrochloride) [Example 24, N-[2-[3-(2,6-difluorophenyl)propoxy]-2-(2,6-dimethylphenyl)ethyl]-N,N-bis(benzyl)amine] the figure was 108 °C; with `C=C(C)C1CC=C(CNCC(OCCCc2c(F)cccc2F)c2c(C)cccc2C)CC1` (stereo not shown) (as salt: hydrochloride) [Example 25, N-[2-[3-(2,6-difluorophenyl)propoxy]-2-(2,6-dimethylphenyl)ethyl]-N-(4-isopropenylcyclohexen-1-ylmethyl)amine], 155 °C. `Cc1cccc(C)c1C(CN1CCCCC1)NCCCc1c(F)cccc1F` (stereo not shown) (as salt: hydrochloride) [Example 35, [3-(2,6-difluorophenyl)propyl]-[1-(2,6-dimethylphenyl)-2-piperidin-1-ylethyl]amine] gave a melting point of 145 °C. Consider `Cc1cccc(C)c1C(CN1CCCCC1)OCc1ccccc1` (stereo not shown) (as salt: hydrochloride) [Example 38, 1-[2-benzyloxy-2-(2,6-dimethylphenyl)ethyl]piperidine], for which the melting point lay within 197 to 199 °C. In turn, `Cc1cccc(C)c1C(CN1CCCCC1)OCc1ccc(Br)cc1` (stereo not shown) (as salt: hydrochloride) [Example 39, 1-[2-(4-bromobenzyloxy)-2-(2,6-dimethylphenyl)ethyl]piperidine] registered a melting point of 152 to 154 °C.

`Cc1cccc(C)c1C(CN1CCCCC1)OCc1ccc(Cl)cc1` (stereo not shown) (as salt: hydrochloride) [Example 40, 1-[2-(4-chlorobenzyloxy)-2-(2,6-dimethylphenyl)ethyl]piperidine]: the melting point was in the range of 134 to 135 °C. `Cc1cccc(C)c1C(CN1CCCCC1)OCc1c(Cl)cccc1Cl` (stereo not shown) (as salt: hydrochloride) [Example 41, 1-[2-(2,6-dichlorobenzyloxy)-2-(2,6-dimethylphenyl)ethyl]piperidine] came in with a melting point of 225 to 227 °C. With `Cc1cccc(C)c1C(CN1CCCCC1)OCc1c(F)cccc1F` (stereo not shown) (as salt: hydrochloride) [Example 42, 1-[2-(2,6-difluorobenzyloxy)-2-(2,6-dimethylphenyl)ethyl]piperidine] the figure was 183 to 185 °C; with `Cc1cccc(C)c1C(CN1CCCCC1)OCc1ccc(Br)cc1Cl` (stereo not shown) (as salt: hydrochloride) [Example 43, 1-[2-(2-chloro-4-bromobenzyloxy)-2-(2,6-dimethylphenyl)ethyl]piperidine], 222 to 224 °C.

On to `Cc1cccc(C)c1C(CN(C)CC1CC1)OCCCc1c(F)cccc1F` (stereo not shown) [Example 10, N-[2-[3-(2,6-difluorophenyl)propoxy]-2-(2,6-dimethylphenyl)ethyl]-N-cyclopropylmethyl-N-methylamine], for which the melting point was 78 °C.

Values taken from patent US6770636B2, “Phenyl-and phenylalkyl-substituted ethanolamines and ethylenediamines” (Boehringer Ingelheim Pharma KG, priority 2000, dated 2004).
